Consider 4 compounds from PMC7827417, “Steroid Glycosides Hyrcanoside and Deglucohyrcanoside: On Isolation, Structural Identification, and Anticancer Activity” (Foods, 2021).

In one series the test system is U-2 OS. Put plainly: MTS cytotoxic assay, U-2 OS. It counts as cell-based. The conditions noted are these: Homo sapiens, U2OS, 72 h. From the text:
(§1) If not indicated otherwise, the cell lines were purchased from the American Type Culture Collection (ATCC). […] K562 is the erythroid-myeloid precursor cell line derived from chronic myeloid leukemia carrying the BCR-ABL hybrid gene. A549, MCF-7, PC-3, 5637, U-2 OS, and MiaPaCa-2 are cells derived from lung, breast, prostate, bladder carcinoma, osteosarcoma, and pancreatic adenocarcinoma, respectively. HEK 293T are transformed human embryonic kidney cells, and L929 (Sigma, St. Louis, MS, USA) are transformed mouse fibroblasts. HCT116, cells from colorectal carcinoma, and their p53 gene knock-out variant (HCT116p53-/-) were purchased from Horizon Discovery. This cell line is a model of human tumors bearing p53 loss-of-function mutations or biallelic deletion of the p53 gene, frequently associated with poor prognosis. The MRC-5 and BJ cells were used as noncancerous cells; more specifically, they are human fibroblasts from the lungs and foreskin, respectively. According to the supplier’s recommendations, all cells were cultured at 37 °C in a 5% CO2 atmosphere and 100% humidity. The culture media used were: DMEM, RPMI 1640, and MEM (according to a cell line); all were supplemented with 5 g L^−1 glucose, 10% fetal calf serum, 2 mM glutamine, 100 U mL^−1 penicillin, 100 µg mL^−1 streptomycin, and NaHCO3. Cells were passaged every two or three days using 0.25% trypsin plus 0.01% EDTA (ethylenediamine tetraacetic acid) in phosphate-buffered saline.
(§2) To evaluate compound cytotoxicity, cells were seeded in 384-well microtiter plates in a volume of […]. The next day, aliquots of the tested derivatives were transferred with Echo550 acoustic liquid handler (Labcyte) to obtain dose response curves with dilution factor 4. The experiments were performed in technical duplicates and three or more biological replicates. After 72 h of incubation in a humidified incubator, […] of the MTS/PMS stock solution were pipetted into each well. After another 1–4 h of incubation, the absorbance at 490 nm was measured using an EnVision Multilabel Plate Reader (PerkinElmer).
Background: Formazan colour is commonly taken as a measure of viable cells.

For a further series, the system named is MRC-5. Put plainly: MTS cytotoxic assay, MRC-5. In kind it is cell-based. Conditions: Homo sapiens.
Description: as §1, §2

The next series relates to mouse peritoneal cells. Put plainly: Viability of mouse peritoneal primary cells (macrophages), WST-1. In kind it is cell-based. Conditions: 24 h; for IC50: Mus musculus, Macrophage, WST-1, lowest tested concentration 1 nM, read-out: concentration at which IC50 was reached in mouse macrophages. The protocol: Female mice of the inbred strain C57BL/6, eight to ten weeks old, were purchased from Charles River Deutschland (Sulzfeld, Germany). They were kept in transparent plastic cages in groups of ten. The animals were housed with food and water ad libitum, lighting was set on 6–18 h, and the temperature was set at 22 °C. All protocols were approved by the institutional ethics committee (MSMT15894/2013-310). Animals, killed by cervical dislocation, were intraperitoneally injected with 8 mL of sterile saline. Pooled peritoneal cells collected from mice were washed in sterile saline, re-suspended in the culture medium, and seeded into 96-well microplates in final 100-μL volumes (Costar, Cambridge, MA, USA). The final density of the cells was 0.25 × 10^6 per mL^−1. The cultures were maintained with or without compounds for 24 h at 37 °C with 5% CO2 in a humidified Heraeus incubator in complete RPMI-1640 (Merck-Sigma, St. Louis, MS, USA), which contained 10% heat-inactivated fetal bovine serum, 2 mM of L-glutamine, 50 μg·mL^−1 of gentamicin, and 5 × 10^−5 M of 2-mercaptoethanol (all Merck-Sigma, St. Louis, MS, USA). Compounds (Ob, Cy (cymarin), Hyr, deHyr) were prepared as 100 mM stock solutions in dimethyl sulfoxide (DMSO) with cell culture grade. The next dilution continued immediately before the experiment with the culture medium. To eliminate the influence of DMSO, equal levels of DMSO were added to the experimental groups.
The viability of mouse peritoneal cells was determined using a colorimetric assay based on the cleavage of the tetrazolium salt WST-1 by mitochondrial dehydrogenases in viable cells (Merck-Sigma, St. Louis, MS, USA). The cells were cultured as described above. After 24 h of culture, the WST-1 was added, and the cells were kept in the Heraeus incubator at 37 °C for an additional 3 h. Optical density at 450/690 nm was determined. The cytotoxicity of the tested CGs was expressed as a percentage. The test samples were related to control samples consisting of untreated cells and samples with 100% dead cells evoked by 1% Triton, according to the formula: ((exp. value − control value)/(Triton value − control value)) × 100. All control and experimental variants were run in quadruplicates. The data were analyzed using GraphPad Prism software 6.05 (GraphPad, San Diego, CA, USA). Values were expressed as the mean ± standard error of the mean (SEM).

Another series concerns SH-SY5Y cells. Further details: method as in PMID 25838173. The conditions noted are these: cited from earlier work.
Series [1] relates to rat vascular smooth muscle cells, endothelial cells, and astrocytes. Further details: method as in PMID 26067145. The conditions noted are these: high concentrations of Ob (3–3000 μM) ref 54; cited from earlier work.
[2] abbreviates: WST-1, 0.001–100.0 µM, not dose-dependent.

SMILES strings stand for the structures. Read-outs that look alike come from different tables or passages of the source.

On to `C[C@]12CC[C@H]3[C@@H](CCC4=C[C@@H](O[C@@H]5OC[C@@H](O)[C@H](O)[C@H]5O)CC[C@@]43C=O)[C@@]1(O)CC[C@@H]2C1=CC(=O)OC1` [deHyr, deglucohyrcanoside], for which the IC50 is 0.165 ± 0.011 µM in the series with U-2 OS; 0.077 ± 0.012 µM in the series on MRC-5 (MRC5, 72 h); about 0.01 µM in the series with mouse peritoneal cells. For the same compound, the “viability of mouse macrophages reduced to % of the control” value in the series on mouse peritoneal cells (setting [2]) was 50%.
As for `C[C@@H]1O[C@@H](O[C@H]2C[C@@H](O)[C@]3(CO)[C@H]4[C@H](O)C[C@]5(C)[C@@H](C6=CC(=O)OC6)CC[C@]5(O)[C@@H]4CC[C@]3(O)C2)[C@H](O)[C@H](O)[C@H]1O` [Ob, ouabain], the IC50 with U-2 OS (U-2 OS, MTS, read-out: IC50) was determined as 0.059 ± 0.0011 µM; with MRC-5 (MRC5, MRC-5 noncancerous lung fibroblasts, MTS, 72 h, read-out: IC50), 0.039 ± 0.0016 µM. Besides, the “decrease of viability of mouse macrophages compared to the control” value in the series with mouse peritoneal cells (WST-1, independent of concentration 1 nm–100 µM) is reported as 10–20%. In addition, the “cytotoxicity to mouse macrophages (in words)” value with mouse peritoneal cells (up to 100 µM concentration) is listed as “did not exhibit significant cytotoxicity”. For the same compound, the reduction of viability in the series with SH-SY5Y cells (24 h ref 53) was 40%; in the series on SH-SY5Y cells (48 h ref 53) it was 10%. In addition, in series [1], the “survival of rodent cells (in words)” value is on record as “perfectly survived”.
Turning to `CO[C@H]1C[C@H](O[C@H]2CC[C@]3(C=O)[C@H]4CC[C@]5(C)[C@@H](C6=CC(=O)OC6)CC[C@]5(O)[C@@H]4CC[C@]3(O)C2)O[C@H](C)[C@H]1O` [Cy, cymarin], the IC50 was 0.043 ± 0.0018 µM in the series on U-2 OS; 0.026 ± 0.0024 µM with MRC-5 (MRC5, 72 h); at most 0.001 µM in the series with mouse peritoneal cells. Moreover, in the series on mouse peritoneal cells (setting [2]), the “cytotoxicity to mouse macrophages, % of the control” value is “about 60%”.
The like results for `C[C@]12CC[C@H]3[C@@H](CCC4=C[C@@H](O[C@@H]5OC[C@@H](O[C@@H]6O[C@H](CO)[C@@H](O)[C@H](O)[C@H]6O)[C@H](O)[C@H]5O)CC[C@@]43C=O)[C@@]1(O)CC[C@@H]2C1=CC(=O)OC1` [Hyr, (3β)-3-[(4-O-β-D-glucopyranosyl-β-D-xylopyranosyl)oxy]-14-hydroxy-19-oxocarda-4,20(22)-dienolide] were, in that order, 1.1 ± 0.059 µM, 0.302 ± 0.043 µM, about 0.1 µM and “about 60%”.
